The text below walks through data of ChEMBL document CHEMBL3046866, “Microwave-assisted synthesis and evaluation of anti-inflammatory activity of new series of N-substituted 2-butyl-5-chloro-3H-imidazole-4-carbaldehyde derivatives” (2009).

The term inhibition in vivo denotes the drop in the measured response relative to a control, in per cent.

SMILES strings stand for the structures.

This experiment concerns Rattus norvegicus. Put plainly: Anti-inflammatory activity in Rattus norvegicus albino (rat) assessed as inhibition of carrageenan-induced paw edema at 100 mg/kg, po administered 1 to 3 hr prior challenge. It is filed as functional. A general note: The carrageenan paw model is a standard test of acute inflammation.
For the molecule `CCCCc1nc(Cl)c(C=O)n1Cc1cc2c(cc1C)OCO2`, the inhibition in vivo at 100 mg/kg amounted to 26%.

For the molecule `CCCCc1nc(Cl)c(C=O)n1CC(=O)c1ccc(Cl)cc1`, the inhibition in vivo at 100 mg/kg was 28%.

Turning to `CC(C)Cc1ccc(C(C)C(=O)O)cc1` (centres undefined) [IBUPROFEN], the inhibition in vivo at 100 mg/kg amounted to 49%.

As for `CCCCc1nc(Cl)c(C=O)n1CC(=O)c1ccccc1`, the inhibition in vivo at 100 mg/kg stood at 26%.
